“And” between values parts separate entries of the source, which are not always exact repeats. Equal values may be shown once.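 Each compound was tested at five concentrations against cells in 96-well plates for 48 hours. The concentration for 50% growth inhibition is given as GI50. At the TGI there is no net growth.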
Assays:
Experiment in all cases: NCI-60 cell line screen, 48 h
CAKI-1 renal = system: CAKI-1 renal
CCRF-CEM leukemia = system: CCRF-CEM leukemia
DU-145 prostate = system: DU-145 prostate
HCC-2998 colon = system: HCC-2998 colon
HL-60(TB) leukemia = system: HL-60(TB) leukemia
HT29 colon = system: HT29 colon
RPMI-8226 leukemia = system: RPMI-8226 leukemia
UACC-62 melanoma = system: UACC-62 melanoma

Compound	GI50 (CAKI-1 renal)	TGI (CAKI-1 renal)	GI50 (CCRF-CEM leukemia)	TGI (CCRF-CEM leukemia)	GI50 (DU-145 prostate)	TGI (DU-145 prostate)	GI50 (HCC-2998 colon)	TGI (HCC-2998 colon)	GI50 (HL-60(TB) leukemia)	TGI (HL-60(TB) leukemia)	GI50 (HT29 colon)	TGI (HT29 colon)	GI50 (RPMI-8226 leukemia)	TGI (RPMI-8226 leukemia)	GI50 (UACC-62 melanoma)	TGI (UACC-62 melanoma)
CC(C)(C)CC(C)(C)N(CSc1ccc(Cl)cc1)CSc1ccc(Cl)cc1	1.78 µM	4.55 µM	0.366 µM	3.38 µM	2.25 µM	11.2 µM	4.62 µM	16.4 µM	1.75 µM	3.96 µM	2.83 µM	9.18 µM	2.17 µM	5.11 µM	1.72 µM	3.77 µM
COc1cc(-c2nc(-c3nnc(-c4ccc(F)c(Cl)c4)o3)c3ccccn23)cc(OC)c1OC	5.46 µM	> 100 µM	> 100 µM	> 100 µM			5.64 µM	> 100 µM					1.79 µM	5.65 µM		
COc1ccc2c(c1)CC[C@@H]1[C@@H]2CC[C@]2(C)c3[nH]ncc3C[C@@H]12	16.2 µM	48.8 µM			20.6 µM	> 50 µM	13.7 µM	35.3 µM	1.64 µM	9.84 µM	15 µM	> 50 µM	10.2 µM	32.8 µM	17.2 µM	> 50 µM
CC(N)(Cc1c[nH]c2ccccc12)C(=O)O (configuration not stated)	> 2500 µM	> 2500 µM	> 2500 µM	> 2500 µM	> 2500 µM	> 2500 µM	> 2500 µM	> 2500 µM	> 2500 µM	> 2500 µM	> 2500 µM	> 2500 µM	> 2500 µM	> 2500 µM	> 2500 µM	> 2500 µM
O=C1OCC2=C1C(c1cccc(C(F)(F)F)c1)c1cc3c(cc1N2CCO)OCO3 (configuration not stated)	1.76 µM	> 50 µM	0.955 µM	> 50 µM	1.72 µM	> 50 µM	1.55 µM	17 µM			1.31 µM	8.4 µM	1.79 µM	> 50 µM	1.14 µM	> 50 µM
NC(=O)c1ccc2nc(-c3ccc(C4(N)CCC4)cc3)c(-c3ccccc3)n2n1	10.3 µM	23.9 µM	1.41 µM	44.4 µM	14.8 µM	33.1 µM	13 µM	31.7 µM	11.5 µM	30.2 µM	1.5 µM	25.7 µM	10.9 µM	30.9 µM	10.3 µM	22.7 µM
COc1ccc2c(c1)C(=O)c1c-2c(OCCN(C)C)nc2cc(OC)ccc12	2.12 µM	11.1 µM	0.536 µM	2.85 µM	1.64 µM	8.03 µM	1.33 µM	2.85 µM	1.98 µM	4.26 µM	0.333 µM	1.37 µM	1.71 µM	5.09 µM	2.12 µM	8.51 µM
C=CC(=O)NCCOc1cccc(Nc2cc(NCCCNC(=O)C3CCC3)c(Br)cn2)c1	0.434 µM	1.75 µM	1.04 µM	> 25 µM	1.21 µM	> 25 µM	2.49 µM	7.59 µM	0.989 µM	> 25 µM	0.548 µM	2.84 µM	1.66 µM	> 25 µM	2.58 µM	6.87 µM
CCCCCCCCCCCCOC1C(CNCC2OC3OC(C)(C)OC3C2NC(=O)Nc2ccc(C(F)(F)F)cc2)OC2OC(C)(C)OC21 (configuration not stated)	7.41 µM	15.1 µM	2.45 µM	12.5 µM	5.03 µM	11.9 µM	3.05 µM	5.88 µM	0.0134 µM	0.364 µM	3.14 µM	7.07 µM	7.06 µM	18.7 µM	8.63 µM	15.9 µM
CC(C)(C)OC(=O)N1CC(Cn2cc(C(F)(F)F)c3c(Cl)ncnc32)C1			3.05 µM	9.19 µM	1.79 µM	3.18 µM	1.79 µM	3.34 µM	2.37 µM	5.82 µM	2.6 µM	6.67 µM	2.67 µM	6.33 µM	1.85 µM	3.65 µM
CNS(=O)(=O)c1ccccc1C(=N)c1ccccc1		> 100 µM		> 100 µM		> 100 µM				> 100 µM		> 100 µM		> 100 µM		> 100 µM
COc1cc(CNc2nc3cc(N)cc(N)c3nc2-c2ccccc2)cc(OC)c1OC	1.9 µM	8.76 µM			5.24 µM	20 µM			1.25 µM	> 50 µM	8.63 µM	19.5 µM	0.697 µM	3 µM	8.09 µM	15.5 µM
O=S(=O)(CC#CCCCOCC#Cc1ccccc1C#CCS(=O)(=O)c1ccccc1)c1ccccc1	13.3 µM	30.8 µM	3.23 µM	10.2 µM	44.5 µM	> 100 µM			21.8 µM	50.1 µM			11.6 µM	31.4 µM	17.7 µM	39.7 µM
COc1ccc(C2=CC(c3ccc(Oc4ccnc5cc(Cl)ccc45)c(OC)c3)c3c(nc(OC)[nH]c3=O)N2)cc1 (configuration not stated)	15.5 µM	> 100 µM	3.25 µM	> 100 µM	10.3 µM	> 100 µM	> 100 µM	> 100 µM	3.51 µM	45.5 µM	4.24 µM	> 100 µM	2.73 µM	7.27 µM	4.39 µM	35.7 µM
COc1cc(-c2cc(-c3nc4cc(Cl)c(Cl)cc4[nH]3)[nH]n2)cc(OC)c1OC	3.81 µM	12.9 µM	2.35 µM	6.75 µM	4.16 µM	15.2 µM	4.47 µM	15 µM	3.34 µM	11.6 µM	3.42 µM	12.5 µM	1.75 µM	4.39 µM	1.94 µM	4.31 µM
O=[N+]([O-])c1cccc(/C=C/c2ccccn2)c1	34.5 µM	> 100 µM	7.91 µM	43 µM	35.6 µM	> 100 µM	44.9 µM	> 100 µM	49.9 µM	> 100 µM			40.2 µM	> 100 µM	60 µM	> 100 µM
C/C(=C1/N=C(c2ccccc2)OC1=O)c1ccc(C)cc1		> 100 µM		> 100 µM		> 100 µM		> 100 µM		> 100 µM		> 100 µM		> 100 µM		> 100 µM
COc1cc2cn3c4ccc(O)cc4nc(N)c3c2cc1OC	0.299 µM	3.22 µM	0.181 µM	7.58 µM	0.253 µM	5.75 µM	0.606 µM	7.29 µM	0.887 µM	2.41 µM	0.714 µM	4.57 µM	1.25 µM	8.32 µM	0.0705 µM	1.63 µM

Compound	GI50 (CAKI-1 renal)	TGI (CAKI-1 renal)	GI50 (CCRF-CEM leukemia)	TGI (CCRF-CEM leukemia)	GI50 (DU-145 prostate)	TGI (DU-145 prostate)	GI50 (HCC-2998 colon)	TGI (HCC-2998 colon)	GI50 (HL-60(TB) leukemia)	TGI (HL-60(TB) leukemia)	GI50 (HT29 colon)	TGI (HT29 colon)	GI50 (RPMI-8226 leukemia)	TGI (RPMI-8226 leukemia)	GI50 (UACC-62 melanoma)	TGI (UACC-62 melanoma)
COc1cc(/C=C/C(=O)NC[C@]2(O)CCC3C4CCc5cc(O)ccc5C4CCC32C)ccc1O (some centres not stated)	46.9 µM	> 100 µM	3.18 µM	86.1 µM	23.9 µM	> 100 µM	8.62 µM	32.4 µM	3.34 µM	90.7 µM	3.68 µM	28.6 µM	3.16 µM	16.7 µM	16.8 µM	> 100 µM
Cc1cc(S(N)(=O)=O)c(S/C(=N\Nc2ccc([N+](=O)[O-])cc2)c2ccc(O)cc2)cc1Cl	2.3 µM	5.22 µM			5.31 µM	23.9 µM	1.65 µM	3.87 µM	1.98 µM	> 100 µM	3.29 µM	7.35 µM	1.66 µM	4.3 µM	1.79 µM	3.84 µM
C=CC[N+]1(CCO)CCN=C1CCCCCCCCCCCCC (configuration not stated)	1.65 µM	3.15 µM			1.6 µM	2.95 µM	1.37 µM	2.66 µM	1.51 µM	3.1 µM	1.3 µM	2.56 µM			1.82 µM	3.52 µM
COc1cccc2c1C(=O)c1c(O)c3c(c(O)c1C2=O)C[C@@](O)(C(=O)CO)C[C@@H]3OC1CC(OC(C)=O)C(OC(C)=O)C(C)O1 (some centres not stated)	0.18 µM	1.44 µM	0.0435 µM	0.764 µM	0.12 µM	0.719 µM	1.28 µM	3.19 µM	0.235 µM		1.02 µM	> 32.1 µM	0.226 µM	2.11 µM	0.23 µM	1.89 µM
CN(C)CCN1C(=O)c2cccc3c(N)ccc(c23)C1=O	4.86 µM	15 µM	9.63 µM	> 25 µM	13.6 µM	> 25 µM	17.8 µM	> 25 µM	4.33 µM	18.9 µM	9.06 µM	> 25 µM	7.71 µM	> 25 µM	7.39 µM	> 25 µM
COc1cc(OC)cc(-c2ccc(-c3ccc(C(=N)N)s3)s2)c1	1.38 µM	2.78 µM	1.24 µM and 0.277 µM	2.9 µM and 0.75 µM	1.31 µM	2.77 µM	1.03 µM	2.58 µM	1.23 µM and 0.174 µM	2.74 µM and 0.374 µM			0.286 µM and 0.218 µM	0.866 µM and 0.483 µM	1.75 µM	3.53 µM
CN(C)c1ccc(/C=C/c2ccnc3ccc4ccccc4c23)cc1		> 100 µM		> 100 µM		> 100 µM				> 100 µM		> 100 µM		> 100 µM		> 100 µM
Cc1coc2c1CC1OC1(C)CCC1OC1(C)C2 (configuration not stated)		> 100 µM		> 100 µM		> 100 µM		> 100 µM		> 100 µM				> 100 µM		> 100 µM
COc1nc2c(cc1S(=O)(=O)c1ccccc1)CCc1c-2cnn1Cc1ccccc1	5.02 µM	> 100 µM	16.8 µM	> 100 µM			25.3 µM	> 100 µM	2.95 µM	> 100 µM	3.89 µM	> 100 µM	3.49 µM	> 100 µM	7.52 µM	> 100 µM
CCC(C(=O)c1cccs1)C(O)(C(F)(F)F)C(F)(F)F (configuration not stated)		> 100 µM				> 100 µM				> 100 µM		> 100 µM		> 100 µM		> 100 µM
Fc1c[c-]c(-c2ccccn2)c(F)c1.[CH3-].[Pt+2].c1ccc([PH+](c2ccccc2)c2ccccn2)cc1	1.23 µM	2.53 µM	1.38 µM	> 100 µM	1.79 µM	3.92 µM	1.83 µM	3.53 µM	2.05 µM	7.28 µM	2.44 µM	> 100 µM	0.412 µM	4.44 µM		
CCc1nc(-n2c(CC)nc3ccccc3c2=O)nc(N)c1-c1ccc(Cl)cc1	22.3 µM	> 84.3 µM			> 76.5 µM	> 100 µM	2.41 µM	> 21 µM	> 100 µM	> 100 µM	16.2 µM	> 100 µM	1.24 µM	> 32 µM	5.46 µM	> 100 µM
COc1cc([N+](=O)[O-])c(S(=O)(=O)O)cc1N		> 100 µM		> 100 µM		> 100 µM				> 100 µM		> 100 µM		> 100 µM		> 100 µM
CCN1CCC2(CC1)NC(=O)c1c(c3ccc(Cl)c(Cl)c3n1C)C2C#N (configuration not stated)	2.25 µM	8.23 µM	3 µM	13.1 µM			1.73 µM	3.26 µM	2.01 µM	6.02 µM	1.92 µM	4.11 µM	1.55 µM	4.59 µM	1.77 µM	3.32 µM
COc1ccc(N2CCN(CN3CCN(c4ccc(OC)cc4)C3)C2)cc1	> 100 µM	> 100 µM	33.4 µM	> 100 µM	79.7 µM	> 100 µM	50.4 µM	> 100 µM			> 100 µM	> 100 µM	32.6 µM	> 100 µM	> 100 µM	> 100 µM
c1ccc(CCCNc2nnnc3ccccc23)cc1		> 100 µM		> 100 µM		> 100 µM				> 100 µM		> 100 µM		> 100 µM		> 100 µM
CCOC(=O)/C(=C/c1ccccc1)C(=O)c1ccccc1	3.04 µM	10.4 µM	2.61 µM	9.44 µM	5.32 µM	17.4 µM	1.93 µM	3.69 µM			2.78 µM	5.8 µM	2.25 µM	5.98 µM	2.73 µM	9.15 µM

From PubChem BioAssay (NCI)
